Drawing on US20170001990A1 (Genentech, Inc., priority 2014, published 2017), this text covers IC50 for 35 molecules.

Where “and” joins values, the source holds several entries; their conditions need not be identical. Equal values may be shown once.

The assay has as its target Human recombinant carboxy-terminal his-tagged LDHA (amino acids 2-332) (Homo sapiens, UniProt P00338). Put plainly: LDHA enzyme inhibition assay (NADH fluorescence). To be noted: LDHA IC50 (μM), 1 nM LDHA, NADH and pyruvate, stereochemistry of tested sample given.
Take `O=C1CC(c2ccsc2)(c2cccc(Br)n2)NC(=O)C1Sc1ccccc1Cl` (centres unmarked) [Example 1, 6-(6-bromo-2-pyridyl)-3-(2-chlorophenyl)sulfanyl-6-(3-thienyl)piperidine-2,4-dione]: the IC50 amounted to 0.006 µM.
`CC(C)Oc1cccc(C2(c3ccsc3)CC(=O)C(Sc3ccccc3Cl)C(=O)N2)n1` (centres unmarked) [Example 2, 3-(2-chlorophenyl)sulfanyl-6-(6-isopropoxy-2-pyridyl)-6-(3-thienyl)piperidine-2,4-dione]: the IC50 worked out at 0.082 µM.
As to `O=C1CC(c2ccsc2)(c2cccc(Cc3cccc(F)c3)n2)NC(=O)C1Sc1ccccc1Cl` (centres unmarked) [Example 5, 3-(2-chlorophenyl)sulfanyl-6-[6-[(3-fluorophenyl)methyl]-2-pyridyl]-6-(3-thienyl)piperidine-2,4-dione], the IC50 is 0.028 µM and 0.009 µM and 0.066 µM.
Take `CC1CN(c2ccc(C3(c4ccsc4)CC(=O)C(Sc4ccccc4Cl)C(=O)N3)cc2)CCO1` (centres unmarked) [Example 7, 3-(2-chlorophenyl)sulfanyl-6-[4-(2-methylmorpholin-4-yl)phenyl]-6-(3-thienyl)piperidine-2,4-dione]: the IC50 turned out to be 0.009 µM.
Then `O=C1CC(c2ccc(C3=CCCCC3)cc2)(c2ccsc2)NC(=O)C1Sc1ccccc1Cl` (centres unmarked) [Example 8, 3-(2-chlorophenyl)sulfanyl-6-[4-(cyclohexen-1-yl)phenyl]-6-(3-thienyl)piperidine-2,4-dione], with 0.004 µM; and `CN1C(=O)C(Sc2ccccc2Cl)C(=O)CC1(c1ccsc1)c1cccc(Nc2ccc(F)cc2)n1` (centres unmarked) [Example 11, 3-(2-chlorophenyl)sulfanyl-6-[6-(4-fluoroanilino)-2-pyridyl]-1-methyl-6-(3-thienyl)piperidine-2,4-dione], with 0.002 µM; and `CN1C(=O)C(Sc2ccccc2Cl)C(=O)CC1(c1ccsc1)c1cccc(Oc2ccc(F)cc2)n1` (centres unmarked) [Example 12, 3-(2-chlorophenyl)sulfanyl-6-[6-(4-fluorophenoxy)-2-pyridyl]-1-methyl-6-(3-thienyl)piperidine-2,4-dione], with 0.027 µM.
For `CN1C(=O)C(Sc2ccccc2Cl)C(=O)CC1(c1ccsc1)c1ccccc1F` (centres unmarked) [Example 13, 3-(2-chlorophenyl)sulfanyl-6-(2-fluorophenyl)-1-methyl-6-(3-thienyl)piperidine-2,4-dione], the IC50 amounted to 0.058 µM.
With `O=C1CC(c2ccsc2)(c2cccc(OCCC3COC3)n2)NC(=O)C1Sc1ccccc1Cl` (centres unmarked) [Example 16, 3-(2-chlorophenyl)sulfanyl-6-[6-[2-(oxetan-3-yl)ethoxy]-2-pyridyl]-6-(3-thienyl)piperidine-2,4-dione], the IC50 is 0.105 µM and 0.076 µM.
Regarding `O=C1CC(c2ccsc2)(c2cccc(Oc3ccccc3-c3cn[nH]c3)n2)NC(=O)C1Sc1ccccc1Cl` (centres unmarked) [Example 18, 3-(2-chlorophenyl)sulfanyl-6-[6-[2-(1H-pyrazol-4-yl)phenoxy]-2-pyridyl]-6-(3-thienyl)piperidine-2,4-dione], the IC50 is 0.012 µM.
As to `O=C1CC(c2ccsc2)(c2cccc(OCCC3CC3(F)F)n2)NC(=O)C1Sc1ccccc1Cl` (centres unmarked) [Example 20, 3-(2-chlorophenyl)sulfanyl-6-[6-[2-(2,2-difluorocyclopropyl)ethoxy]-2-pyridyl]-6-(3-thienyl)piperidine-2,4-dione], the IC50 was found to be 0.039 µM.
For the molecule `Cn1nncc1-c1ccccc1Oc1cccc(C2(c3ccsc3)CC(=O)C(Sc3ccccc3Cl)C(=O)N2)n1` (centres unmarked) [Example 21, 3-(2-chlorophenyl)sulfanyl-6-[6-[2-(3-methyltriazol-4-yl)phenoxy]-2-pyridyl]-6-(3-thienyl)piperidine-2,4-dione], the IC50 was determined as 0.119 µM.
For `CN1C(=O)C(Sc2ccccc2Cl)C(=O)CC1(c1ccsc1)c1cccc(OC2CCOCC2)c1` (centres unmarked) [Example 23, 3-(2-chlorophenyl)sulfanyl-1-methyl-6-(3-tetrahydropyran-4-yloxyphenyl)-6-(3-thienyl)piperidine-2,4-dione] the value was 0.026 µM; for `O=C1CC(c2ccsc2)(c2ccc(N3CCOCC3)c(Br)n2)NC(=O)C1Sc1ccccc1Cl` (centres unmarked) [Example 25, 6-(6-bromo-5-morpholino-2-pyridyl)-3-(2-chlorophenyl)sulfanyl-6-(3-thienyl)piperidine-2,4-dione], 0.023 µM; for `O=C1CC(c2ccsc2)(c2ccc(N3CCOCC3)c(Nc3ccc(F)cc3)n2)NC(=O)C1Sc1ccccc1Cl` (centres unmarked) [Example 26, 3-(2-chlorophenyl)sulfanyl-6-[6-(4-fluoroanilino)-5-morpholino-2-pyridyl]-6-(3-thienyl)piperidine-2,4-dione], 0.038 µM.
For `O=C1CC(c2ccsc2)(c2ccc(N3CCOCC3)c(Oc3ccc(F)cc3)n2)NC(=O)C1Sc1ccccc1Cl` (centres unmarked) [Example 27, 3-(2-chlorophenyl)sulfanyl-6-[6-(4-fluorophenoxy)-5-morpholino-2-pyridyl]-6-(3-thienyl)piperidine-2,4-dione] the value was 0.05 µM.
For `O=C1CC(c2ccc(OCCCO)cc2)(c2ccsc2)NC(=O)C1Sc1ccccc1Cl` (centres unmarked) [Example 28, 3-(2-chlorophenyl)sulfanyl-6-[4-(3-hydroxypropoxy)phenyl]-6-(3-thienyl)piperidine-2,4-dione] the value was 0.031 µM.
For `O=C1CC(c2ccc(OCCO)cc2)(c2ccsc2)NC(=O)C1Sc1ccccc1Cl` (centres unmarked) [Example 29, 3-(2-chlorophenyl)sulfanyl-6-[4-(2-hydroxyethoxy)phenyl]-6-(3-thienyl)piperidine-2,4-dione], the IC50 amounted to 0.009 µM.
Take `COCCOc1ccc(C2(c3ccsc3)CC(=O)C(Sc3ccccc3Cl)C(=O)N2)cc1` (centres unmarked) [Example 30, 3-(2-chlorophenyl)sulfanyl-6-[4-(2-methoxyethoxy)phenyl]-6-(3-thienyl)piperidine-2,4-dione]: the IC50 came to 0.053 µM.
Turning to `COCCCOc1ccc(C2(c3ccsc3)CC(=O)C(Sc3ccccc3Cl)C(=O)N2)cc1` (centres unmarked) [Example 31, 3-(2-chlorophenyl)sulfanyl-6-[4-(3-methoxypropoxy)phenyl]-6-(3-thienyl)piperidine-2,4-dione], the IC50 came out at 0.008 µM.
For `O=C1CC(c2ccsc2)(c2ccc3ccccc3c2)NC(=O)C1Sc1ccccc1Cl` (centres unmarked) [Example 32, 3-(2-chlorophenyl)sulfanyl-6-(2-naphthyl)-6-(3-thienyl)piperidine-2,4-dione] the value was 0.01 µM; for `CN1C(=O)C(Sc2ccccc2Cl)C(=O)CC1(c1ccsc1)c1cccc(NC2CCOCC2)c1` (centres unmarked) [Example 34, 3-(2-chlorophenyl)sulfanyl-1-methyl-6-[3-(tetrahydropyran-4-ylamino)phenyl]-6-(3-thienyl)piperidine-2,4-dione], 0.033 µM; for `O=C1CC(c2ccsc2)(c2ccc(N3CCOCC3)cc2O)NC(=O)C1Sc1ccccc1Cl` (centres unmarked) [Example 35, 3-(2-chlorophenyl)sulfanyl-6-(2-hydroxy-4-morpholino-phenyl)-6-(3-thienyl)piperidine-2,4-dione], 0.007 µM.
For `O=C1CC(c2ccsc2)(c2ccccc2O)NC(=O)C1Sc1ccccc1Cl` (centres unmarked) [Example 36, 3-(2-chlorophenyl)sulfanyl-6-(2-hydroxyphenyl)-6-(3-thienyl)piperidine-2,4-dione] the value was 0.021 µM and 0.008 µM and 0.025 µM; for `O=C1CC(c2ccc(N3CCOCC3)cc2)(c2cccc(Br)n2)NC(=O)C1Sc1ccccc1Cl` (centres unmarked) [Example 38, 6-(6-bromopyridin-2-yl)-3-((2-chlorophenyl)thio)-6-(4-morpholinophenyl)piperidine-2,4-dione], 0.004 µM; for `O=C1CC(c2ccc(N3CCOCC3)cc2)(c2cccc(Nc3ccc(F)cc3)n2)NC(=O)C1Sc1ccccc1Cl` (centres unmarked) [Example 39, 3-((2-chlorophenyl)thio)-6-(6-((4-fluorophenyl)amino)pyridin-2-yl)-6-(4-morpholinophenyl)piperidine-2,4-dione], 0.003 µM and 0.012 µM.
For `O=C1CC(c2ccc(N3CCOCC3)cc2)(c2cccc(Oc3ccc(F)c(F)c3)n2)NC(=O)C1Sc1ccccc1Cl` (centres unmarked) [Example 40, 3-(2-chlorophenyl)sulfanyl-6-[6-(3,4-difluorophenoxy)-2-pyridyl]6-(4-morpholinophenyl)piperidine-2,4-dione] the value was 0.036 µM; for `O=C1CC(c2ccc(N3CCOCC3)cc2)(c2cccc(OC3CCCCC3)n2)NC(=O)C1Sc1ccccc1Cl` (centres unmarked) [Example 41, 3-((2-chlorophenyl)thio)-6-(6-(cyclohexyloxy)pyridin-2-yl)-6-(4-morpholinophenyl)piperidine-2,4-dione], 0.016 µM.
For the molecule `O=C1CC(c2ccc(N3CCOCC3)cc2)(c2cscn2)NC(=O)C1Sc1ccccc1Cl` (centres unmarked) [Example 42, 3-((2-chlorophenyl)thio)-6-(4-morpholinophenyl)-6-(thiazol-4-yl) piperidine-2,4-dione], the IC50 was 0.005 µM and 0.01 µM and 0.017 µM.
For `O=C1CC(c2ccc(N3CCCCC3)cc2)(c2ccsc2)NC(=O)C1Sc1cc(O)ccc1Cl` (centres unmarked) [Example 43] the value was 0.017 µM; for `O=C1CC(c2ccc(N3CC4(COC4)C3)cc2)(c2ccsc2)NC(=O)C1Sc1ccccc1Cl` (centres unmarked) [Example 45, 3-(2-chlorophenyl) sulfanyl-6-[4-(2-oxa-6-azaspiro[3.3]heptan-6-yl)phenyl]-6-(3-thienyl)piperidine-2,4-dione], 0.069 µM.
Turning to `O=C1CC(c2ccsc2)(c2cccc(Oc3ccccn3)n2)NC(=O)C1Sc1ccccc1Cl` (centres unmarked) [Example 46, 3-(2-chlorophenyl) sulfanyl-6-[6-(2-pyridyloxy)-2-pyridyl]-6-(3-thienyl)piperidine-2,4-dione], the IC50 came to 0.005 µM.
For the molecule `O=C1CC(c2ccsc2)(c2cccc(OC3CCCC3)n2)NC(=O)C1Sc1ccccc1Cl` (centres unmarked) [Example 48, 3-((2-chlorophenyi)lliio)-6-(6-(cyclopentyloxy)pyridin-2-yl)-6-(thiophen-3-yl)piperidine-2 .4-dione], the IC50 amounted to 0.052 µM.
`O=C1CC(c2ccsc2)(c2cccc(OC3CCOC3)n2)NC(=O)C1Sc1ccccc1Cl` (centres unmarked) [Example 49, 3-((2-chlorophenyl)thio)-6-(6-((tetrahydrofuran-3-yl)oxy)pyridin-2-yl)-6-(thiophen-3-yl) piperidine-2,4-dione]: the IC50 is 0.025 µM.
On to `O=C1CC(c2ccsc2)(c2cccc(Oc3ccc(F)cc3F)n2)NC(=O)C1Sc1ccccc1Cl` (centres unmarked) [Example 50, 3-(2-chlorophenyl) sulfanyl-6-[6-(2,4-difluorophenoxy)-2-pyridyl]-6-(3-thienyl)piperidine-2,4-dione], for which the 50% inhibitory concentration (IC50) came out at 0.022 µM.

In general, IC50 refers to the concentration that gives 50% inhibition.
